Assay results published in patent publication US6933322B2, “Substituted naphthylenes for the treatment of non-insulin dependent diabetes mellitus” (Wyeth, priority 2002, dated 2005).

Key:
diabetic ob/ob mice [1] = settings: reference compound, 20 mg/kg/day; cited from earlier work
[2] = test system: hepatocytes isolated and cultured from obese Zucker (fa/fa) rats; experiment: Inhibition of glucose output from hepatocytes isolated and cultured from obese Zucker (fa/fa) rats; type: cell-based, rat; settings: inhibition of glucose output compared to glucagon stimulated cells
Experimental: Inhibition of Glucose Output from Hepatocytes Isolated and Cultured from Obese Zucker (fa/fa) Rats and Their Lean Controls
Culturing of Hepatocytes: Isolated hepatocytes were plated on 12 well rat-tail collagen coated plates at a cell density of 5×10(5) cells/ml (approximately 1 ml of cell suspension per well). Following a one hour attachment period in which plates were incubated in a CO2 incubator at 37 deg C. (95% O2, 5% CO2), the supernatant containing unattached hepatocytes was removed and replaced with fresh media (1 ml/well) containing 1 μM dexamethasone and 100 pM insulin. Cells were maintained at 37 deg C. for 48 hours in a 95% O2, 5% CO2 environment. At the end of the first 24 hours, the media was aspirated off of the wells and replaced with fresh media containing the same concentrations of dexamethasone and insulin as described earlier. Treatment with Drugs and Assessment of Glucose Output: Drugs were routinely added with fresh media 24 hours after the initial attachment period. Eighteen hours later, media was aspirated and 500 μl of fresh Hank's buffer, Buffer D (glucose-free) supplemented with hormones, gluconeogenic substrates and drug(s) was added to each well and incubated for 4 hours. At the end of the 4 hour incubation, media from each well was removed and assayed for glucose content using the hexokinase/glucose-6-phosphate dehydrogenase coupled assay on the Boehringer Mannheim model 911 auto analyzer. Glucose concentration was expressed as μg/ml. Three of the plates from each treated group were frozen for subsequent determination of protein content. Two plates from each treatment group were used to assess the cytotoxicity of drug(s) and other agents as determined by the MTT (tetrazolium) dye reduction method (see below).
Protein test procedure: Three plates with no insulin treatment and three plates with 10^−8 M insulin treatment were used for protein determination. After supernatant has been removed for determination of glucose output the plates were frozen and stored at −20 deg C. until ready to assay for protein content. Prior to determination of protein the plates were defrosted at room temperature for 15 minutes. An aliquot of 1 ml 0.1 N NaOH was added to each well. Plates were incubated at 4 deg C. overnight. Solutions for measurement of protein content were mixed by pipetting the NaOH solution up and down several time with a 1 ml pipette and then transferring to a small polyethylene tube. Protein determination was based on that of the Pierce BCA protein assay protocol (Pierce cat. no. 23223). A set of protein standards (0.2, 0.4, 0.6, 0.8, and 1 mg/ml BSA) was prepared by serial dilution of 1 mg/ml bovine serum albumin with 0.1 N NaOH, and 40 μl of each standard, or control blank was pipetted into a 96-well plate in duplicate. Each unknown protein sample (40 μl) was tested in triplicate. An aliquot of 200 μl of BCA protein assay reagent (consisting of 50 parts Reagent A with 1 part Reagent B) was added to each well. Samples were mixed with a Titertek pipette. The microtiter plate was covered with sealing tape and incubated at room temperature for 1 hour. After incubation, the sealing tape was removed and absorbance measured on a plate reader (Uvmax kinetic microplate reader, Molecular Devices) at 570 nm. A standard curve was prepared by plotting the blank-corrected absorbance against known protein concentrations, and protein concentrations were then determined for each unknown.
Measurements and Calculations: Glucose output was calculated as μg glucose/mg protein/hour, and inhibition of glucose output was calculated as percent inhibition of glucose output when compared to glucagon stimulated cells. Cytotoxicity was determined using the MTT dye reduction assay and data were expressed as percent inhibition of MTT dye reduction compared to control cells. […]

diabetic ob/ob mice [3] = experiment: Hypoglycemic effect in diabetic ob/ob mice; type: in vivo, mouse
Experimental: Hypoglycemic Effect in Diabetic OB/OB Mice
Procedure: In each study, male or female ob/ob (C57 B1/6J) mice and their mean litermates (ob/+ or +/+, Jackson Laboratories) ages 2 to 5 months (10 to 65 g) were randomized according to plasma glucose into 4 groups of 10 mice. The mice were housed 5 per cage and were maintained on normal rodent chow with water ad libitum. Mice receive compound daily by gavage (suspended in 0.5 ml of 0.5% methyl cellulose); dissolved in the drinking water; or admixed in the diet. The dose of compounds given ranges from 2.5 to 200 mg/kg body weight/day. Body weight of fed animals was measured at the beginning of each week and doses for the entire week were calculated using this weight and were expressed in terms of the active moiety of the compound. Control mice receive vehicle only. […]
Measurements: The plasma was isolated by centrifugation and the concentration of glucose was measured enzymatically on an Abbott V. P. Analyzer and the plasma concentration of insulin was determined by radioimmunoassay (Heding, 1972)
Analysis of variance followed by Dunnett's Comparison Test (one-tailed) was used to estimate the significant difference between the plasma glucose values from the control group and the individual compound treated groups (CMS SAS Release 5.18). A compound will be considered active if the difference has a p<0.05.

| melting point | Compound | IC50 ([2]; Rattus norvegicus, Hepatocyte) | other results |
| --- | --- | --- | --- |
|  | sodium metavanadate |  | lowering in plasma glucose (diabetic ob/ob mice [1]): significant lowering in plasma glucose |
| 197 to 198 °C | O=S(=O)(Nc1ccc2c(OCc3csc(-c4ccc(C(F)(F)F)cn4)n3)cccc2c1)C(F)(F)F [Example 52, C,C,C-Trifluoro-N-{5-[2-(5-trifluoromethyl-pyridin-2-yl)-thiazol-4-yl-methoxy]naphthalen-2-yl}-methanesulfonamide] | 12 µM |  |
|  | Cc1oc(-c2ccc(C(F)(F)F)cc2)nc1COc1cccc2cc(NS(=O)(=O)C(F)(F)F)ccc12 [Example 81] |  | REDUCTION IN PLASMA GLUCOSE Day 1 (6 hr) p.o. (diabetic ob/ob mice [3]; 5 mg/kg): −28% (5 mg/kg); REDUCTION IN PLASMA GLUCOSE Day 3 (6 hr) p.o. (diabetic ob/ob mice [3]; 5 mg/kg): −33% (5 mg/kg) |
| 169 to 170 °C | O=S(=O)(Nc1ccc2c(OCc3ccc(-c4ccc(Cl)c(Cl)c4)cc3Cl)cccc2c1)C(F)(F)F [Example 30, C,C,C-Trifluoro-N-[5-(3,3′,4′-trichloro-biphenyl-4-ylmethoxy)-naphthalen-2-yl]-methanesulfonamide] | 3.1 µM | REDUCTION IN PLASMA GLUCOSE Day 1 (6 hr) p.o. (diabetic ob/ob mice [3]; 25 mg/kg): −6% (25 mg/kg); REDUCTION IN PLASMA GLUCOSE Day 3 (6 hr) p.o. (diabetic ob/ob mice [3]; 25 mg/kg): −11% (25 mg/kg) |
| 98 to 100 °C | O=S(=O)(Nc1ccc2c(OCc3ccc(-c4ccc(C(F)(F)F)cc4)cc3F)cccc2c1)C(F)(F)F [Example 5, C,C,C-Trifluoro-N-[5-(3-fluoro-4′-trifluoromethyl-biphenyl-4-ylmethoxy)-naphthalen-2-yl]-methanesulfonamide] | 6.3 µM |  |
| 191 to 192 °C | O=S(=O)(Nc1ccc2c(OCc3csc(-c4ccc(F)cc4F)n3)cccc2c1)C(F)(F)F [Example 46, N-{5-[2-(2,4-Difluoro-phenyl)-thiazol-4-ylmethoxy]-naphthalen-2-yl}-C,C,C-trifluoro-methanesulfonamide] | 2.8 µM |  |
| 170 to 171 °C | O=S(=O)(Nc1ccc2c(OCc3ccc(-c4cccc(Cl)c4)cc3)cccc2c1)C(F)(F)F [Example 25, N-[5-(3′-Chloro-biphenyl-4-ylmethoxy)-naphthalen-2-yl]-C,C,C-trifluoromethanesulfonamide] |  | REDUCTION IN PLASMA GLUCOSE Day 1 (6 hr) p.o. (diabetic ob/ob mice [3]; 10 mg/kg): −22% (10 mg/kg); REDUCTION IN PLASMA GLUCOSE Day 3 (6 hr) p.o. (diabetic ob/ob mice [3]; 10 mg/kg): −24% (10 mg/kg) |
| 176 to 178 °C | O=S(=O)(Nc1ccc2c(OCc3ccc(-c4ccc(Cl)cc4)cc3Cl)cccc2c1)C(F)(F)F [Example 31, N-[5-(3,4′-Dichloro-biphenyl-4-ylmethoxy)-naphthalen-2-yl]-C,C,C-trifluoro-methanesulfonamide] | 2.6 µM | REDUCTION IN PLASMA GLUCOSE Day 1 (6 hr) p.o. (diabetic ob/ob mice [3]; 5 mg/kg): −23% (5 mg/kg); REDUCTION IN PLASMA GLUCOSE Day 3 (6 hr) p.o. (diabetic ob/ob mice [3]; 5 mg/kg): −22% (5 mg/kg) |
|  | O=S(=O)(Nc1ccc2c(OCc3cccc(-c4ccccc4)c3)cccc2c1)C(F)(F)F [Example 27] |  | IC50 [2]: 7 µM; REDUCTION IN PLASMA GLUCOSE Day 3 (6 hr) p.o. (diabetic ob/ob mice [3]; 10 mg/kg): −31% (10 mg/kg) |
| 151 to 152 °C | COc1ccc(-c2nc(COc3cccc4cc(NS(=O)(=O)C(F)(F)F)ccc34)cs2)cc1 [Example 53, C,C,C-Trifluoro-N-{5-[2-(4-methoxy-phenyl)-thiazol-4-ylmethoxy]-naphthalen-2-yl}-methanesulfonamide] | 9.5 µM |  |
|  | O=S(=O)(Nc1ccc2c(OCc3cccc(OCc4ccc(-c5ccc6ccccc6c5)cc4)c3)cccc2c1)C(F)(F)F [Example 14, N-[5-(4-naphthalen-2-yl-benzyloxy-3-ylmethoxy)-naphthalen-2-yl]-C,C,C-trifluoro-methanesulfonamide] |  | IC50 [2]: 10.4 µM |
| 155 to 157 °C | COc1ccc(-c2ccc(Cl)cc2)cc1COc1cccc2cc(NS(=O)(=O)C(F)(F)F)ccc12 [Example 21, N-[5-(4′-Chloro-4-methoxy-biphenyl-3-ylmethoxy)-naphthalen-2-yl]-C,C,C-trifluoromethanesulfonamide] |  |  |
| 151 to 153 °C | O=S(=O)(Nc1ccc2c(OCc3ccc(-c4ccc(Cl)cc4)cc3F)cccc2c1)C(F)(F)F [Example 8, N-[5-(4′-Chloro-3-fluoro-biphenyl-4-ylmethoxy)-naphthalen-2-yl]-C,C,C-trifluoro-methanesulfonamide] |  |  |
| 182 °C (dec.) | NC(=O)Nc1ccc2c(OCc3ccc(-c4ccc(Cl)cc4)cc3)cccc2c1 [Example 77, [5-(4′-Chloro-biphenyl-4-ylmethoxy)-naphthalen-2-yl]-urea] |  |  |
| 128 to 129 °C | O=S(=O)(Nc1ccc2c(OCc3csc(-c4ccccc4Cl)n3)cccc2c1)C(F)(F)F [Example 54, N-{5-[2-(2-Chloro-phenyl)-thiazol-4-ylmethoxy]-naphthalen-2-yl}-C,C,C-trifluoromethanesulfonamide] |  |  |
| 132 to 133 °C | COc1ccc(-c2cc(COc3cccc4cc(NS(=O)(=O)C(F)(F)F)ccc34)ccc2F)cc1 [Example 26, C,C,C-Trifluoro-N-[5-(6-fluoro-4′-methoxy-biphenyl-3-ylmethoxy)-naphthalen-2-yl]-methanesulfonamide] |  |  |
|  | O=S(=O)(Nc1ccc2c(OCc3csc(-c4ccc(C(F)(F)F)cc4)n3)cccc2c1)C(F)(F)F [Example 57, N-{5-[2-(4-trufluoromethyl-phenyl)-thiazol-4-ylmethoxy]-naphthalen-2-yl}-C,C,C-trifluoro-methanesulfonamide] |  | IC50 [2]: 1.5 µM; REDUCTION IN PLASMA GLUCOSE Day 3 (6 hr) p.o. (diabetic ob/ob mice [3]; 10 mg/kg): −33% (10 mg/kg) |
| 131 to 134 °C | O=S(=O)(Nc1ccc2c(OCc3ccc(-c4ccccc4)cc3Cl)cccc2c1)C(F)(F)F [Example 29, N-[5-(3-Chloro-biphenyl-4-ylmethoxy)-naphthalen-2-yl]-C,C,C-trifluoro-methanesulfonamide] |  |  |
| 123 to 125 °C | COc1ccc(-c2cccc(COc3cccc4cc(NS(=O)(=O)C(F)(F)F)ccc34)c2)cc1 [Example 20, C,C,C-Trifluoro-N-[5-(4′-methoxy-biphenyl-3-ylmethoxy)-naphthalen-2-yl]-methanesulfonamide] |  |  |
| 123 to 125 °C | O=S(=O)(Nc1ccc2c(OCc3ccc(-c4ccccc4)cc3F)cccc2c1)C(F)(F)F [Example 4, C,C,C-Trifluoro-N-[5-(3-fluoro-biphenyl-4-ylmethoxy)-naphthalen-2-yl]-methanesulfonamide] |  | REDUCTION IN PLASMA GLUCOSE Day 1 (6 hr) p.o. (diabetic ob/ob mice [3]; 10 mg/kg): −28% (10 mg/kg); REDUCTION IN PLASMA GLUCOSE Day 3 (6 hr) p.o. (diabetic ob/ob mice [3]; 10 mg/kg): −37% (10 mg/kg) |
